According to EP0357495A2, “3'Azido-3'-deoxythymidine (AZT) derivatives active against the AIDS virus” (IRE-CELLTARG S.A., priority 1988, dated 1990):
“And” between values parts separate entries of the source, which are not always exact repeats. Identical values can stand only once.

What was measured:
[1] = in vivo toxicity, intraperitoneal, 5-day-old NMRI mice; design: species or system souriceaux NMRI; settings: AZT, i.p.
Description: L'AZT et son dérivé 5′hémisuccinyl ont été administrés par voie infra-péritonéale à de souriceaux NMRI âgés de 5 jours (100 µl/g de poids corporel). Les animaux ont été contrôlés tous les jours selon 2 critères : survie et poids pendant 25 jours.
Les résultats sont repris au tableau 9. Les souriceaux traités n'ont pas montre de différence significative dans la prise de poids par rapport aux contrôles. Tableau 9

[2] = tested on: virus HIV-1 (souche HTLV-IIIB); assay: viral antigen assay in HIV-infected human peripheral blood lymphocytes; assay type: cell-based; settings: day 14 of culture
Text: Les lymphocytes ont été extraits d'un concentré plaquettaire par séparation sur gradient de Ficoll et élimination des adhérentes. Après 3 jours de stimulation par la phytohémaglutinine, ils ont été transférés dans un milieu additionné d'interleukine-2 (IL-2) est infectés par le virus HIV-1 (souche HTLV-IIIB). L'AZT et son dérivé 5′ hémisuccinate à différentes concentrations ont été rajoutés aux cellules au moment de l'infection.
Trois jours après l'infection, le milieu a été remplacé par du milieu frais additionné d'IL-2, contenant les produits aux concentrations désirées pour la moitié des cellules, et ne contenant plus de produit pour l'autre moitié. Ensuite, le milieu des cellules a été remplacé à moitié par du milieu frais additionné d'IL-2, contenant ou non les produits aux concentrations désirées, tous les 3 à 4 jours.
La multiplication du virus a été suivie par dosage des antigènes viraux dans les surnageants de culture (Innotest HIV-Organon Teknika).

[3] = tested on: virus HIV-1 (souche HTLV-IIIB); assay: viral antigen expression in HIV-infected HUT-78 cells (indirect immunofluorescence, laser cytofluorescence); assay type: cell-based
Text: Les produits (AZT et AZT-5′ hémisuccinyl) à différentes concentrations ont été mis en présence de cellules HUT-78 infectées par le virus HIV-1 (souche HTLV-IIIB) à une multiplicité d'infection de 0.4. Tous les quatre jours, 3/4 du milieu ont été remplacés par du milieu frais. Après douze jours, l'expression des antigènes viraux a été mesurée par immunofluorescence indirecte à l'aide d'un sérum anti-HIV-I positif, et par cytofluorescence laser, tel que décrit par Pauwels et al. J. Virol. Meth. 16, 171-185 (1987).
Des résultats sont exprimés dans le tableau 3 en ED₅₀ et en pourcentage d'effet protecteur selon la formule : [formula] TABLEAU 3

HIV = settings: patients at AIDS stage, estimate; cited from earlier work
cellules MT4 = assay: cytotoxicity on non-infected MT4 cells (MTT method); assay type: cell-based; settings: for toxicité (compared with AZT, in words): comparison with AZT
Description: (§1) Les produits (AZT, AZT-5′ hémisuccinyl et AZT 5′-leucyl) à différentes concentrations ont été mis en présence de cellules MT4 (4 X 10⁴ cellules par puits de microtray) infectées ou non avec 100 CCID₅₀ de virus HIV-1 (souche HTLV-IIIB). La CCID₅₀ représente la quantité de virus à rajouter pour obtenir une infection de 50 % des cellules (dose infectieuse de cellules en culture 50).
(§2) Après cinq jours d'incubation à 37°C, le nombre de cellules vivantes a été déterminé par la méthode au MTT, basée sur la réduction par les cellules vivantes du 3′-(4, 5-diméthylthiazol-2-yl)-2,5-diphényltétrazoliumbromide, jaune, en formazan, bleu. L'activité antivirale et la cytotoxicité sont exprimées sous forme de ED₅₀ et de CD₅₀. La CD₅₀ représente la dose qui tue 50 % des cellules non infectées et la ED₅₀ représente la dose qui protège 50 % des cellules de l'infection virale.
(§3) En effet l'AZT entre en compétition avec la thymidine au niveau des enzymes de phosphorylation qui vont le transformer en AZT triphosphate (AZT TP) qui est la forme active du produit. Un excès de thymidine réduit donc très fortement l'activité de l'AZT, ce qui se traduit par une ED₅₀ plus élevée. Par conséquent, si le dérivé de l'AZT doit son activité à la libération d'AZT qui à son tour est phosphorylé en AZT TP, un excès de thymidine aura également pour effet d'élever la ED₅₀ du dérivé. La thymidine étant cytotoxique à la concentration utilisée, il est nécessaire de rajouter de la 2′déoxycytidine pour empêcher cette toxicité.
(§4) Les protocoles expérimentaux sont ceux décrits à l'exemple 9 3.1) et 9 3).

[4] = tested on: virus HIV-1 (souche HTLV-IIIB); assay: anti-HIV activity in HIV-infected MT4 cells (MTT method); assay type: cell-based; settings: for activité (compared with AZT, in words): comparison with AZT
Description: as §1, §2
as §3, with “La même expérience que celle décrite ci-avant (exemple 9.1)) a été réalisée, mais en présence de thymidine 250 µM et de 2′déoxycytidine 500 µM. En” for “En”
as §4

[5] = tested on: virus MSV Moloney sarcoma virus; assay: in vivo activity in MSV-infected NMRI mice (survival, tumour appearance); design: species or system souris NMRI
Description: L'AZT et ses dérivés selon l'invention ont été testés in vivo chez la souris NMRI (souriceaux de 2 jours) infectée par le virus MSV Moloney sarcoma virus). La drogue est adminitrée i.p. pendant 5 jours dans un volume de 25 µl/g de poids corporel. Le virus est inoculé dans la cuisse gauche de l'animal deux heures après la première administration de drogue. Les animaux sont contrôlés tous les jours selon trois critères : survie, apparition de la tumeur et poids (toxicité) pendant 50 jours. Les résultats sont repris au tableau 7 et dans les figures 8 à 11. [formula]
On entend par temps médian de survie le temps où la moitié des souris sont encore vivantes. [formula] Tableau 7

[6] = tableau 2, non-infected MT4 cells, 5 days at 37°C, dose that kills 50 % of cells
[7] = tableau 4, MT-4, without thymidine / 2′déoxycytidine
[8] = tableau 6, MT-4, without thymidine / déoxy-cytidine
[9] = listed as dérive 5′-valine de l'AZT
[10] = tableau 6, MT-4, with thymidine(250 µM) + déoxy-cytidine (500 µM)

## Cc1cn([C@H]2C[C@H](N=[N+]=[N-])[C@@H](CO)O2)c(=O)[nH]c1=O [AZT, 3′azido-3′déoxythymidine, reference compound]
[1]; dose 1 g/kg poids corporel (équivalent AZT 1)
  Survivants au jour 25: 0%
[1]; dose 2 g/kg poids corporel (équivalent AZT 2)
  Survivants au jour 25: 0%
[2]; durée d'administration 3 jours
  ED₅₀: 0.03 µM
[2]; durée d'administration 14 jours
  ED₅₀: 0.023 µM
[3]; HUT-78, day 12, concentration 0.2 µM
  Pourcentage d'effet protecteur: 36%
[3]; HUT-78, day 12, concentration 1 µM
  Pourcentage d'effet protecteur: 45%
[3]; HUT-78, day 12, concentration 5 µM
  Pourcentage d'effet protecteur: 65%
[3]; HUT-78 cells, multiplicity of infection 0.4, day 12
  ED₅₀: ED₅₀ AZT = 2 µM
HIV
  augmentation du temps de survie des patients traités: ~18 mois
Cellules MT4; [6]
  CD₅₀: 15.8 µM and 14.2 µM
Cellules MT4; [7]
  CD₅₀: 5.06 µM
Cellules MT4; [8]
  CD₅₀: 5,06 µM
[4]; de l'ordre de
  indice de sélectivité: ~6000
[4]; [7]
  ED₅₀: 0,0018 µM
  SI: 2780
[4]; [8]
  ED₅₀: 0.0018 µM
  SI: 2780
[5]; AZT 5 mg/kg/jour i.p. 5 days
  % ILS: 26.8%
  % ITL: 62.8%
  Temps moyen d'apparition de la tumeur: 6.5 jours
  Temps moyen de survie: 11.3 jours
  Temps médian d'apparition de la tumeur: 7.3 jours
  Temps médian de survie: 11.6 jours
[5]; AZT 25 mg/kg/jour i.p. 5 days
  % ILS: 74.8%
  % ITL: 190%
  Temps moyen de survie: >19.8 jours
  Temps médian d'apparition de la tumeur: 13 jours
  Temps médian de survie: 16 jours
[5]; AZT 125 mg/kg/jour i.p. 5 days
  % ILS: 74.8%
  % ITL: 137%
  Temps moyen d'apparition de la tumeur: 10.2 jours
  Temps moyen de survie: >23.3 jours
  Temps médian d'apparition de la tumeur: 10.6 jours
  Temps médian de survie: 16 jours

## Cc1cn([C@H]2C[C@H](N=[N+]=[N-])[C@@H](COC(=O)[C@@H](N)C(C)C)O2)c(=O)[nH]c1=O [AZT 5′valyl, 5′-O-(L-valyl)-3′-azido-3′-deoxythymidine]
Cellules MT4; listed as AZT-5′valine
  toxicité (compared with AZT, in words): comparable à celle de ce dernier
Cellules MT4; [9]
  toxicité (compared with AZT, in words): comparable à celle de l'AZT
Cellules MT4; [10]
  CD₅₀: 38.16 µM
Cellules MT4; [8]
  CD₅₀: 3.65 µM
[4]; listed as AZT-5′valine
  activité (compared with AZT, in words): deux foix plus élevée que celle de l'AZT
[4]; [9]
  activité (compared with AZT, in words): plus actif que l'AZT
[4]; [10]
  ED₅₀: 0.0987 µM
  SI: 386
[4]; [8]
  ED₅₀: 0.0007 µM
  SI: 5083

## CC(=O)N[C@@H](CC(=O)OC[C@H]1O[C@@H](n2cc(C)c(=O)[nH]c2=O)C[C@@H]1N=[N+]=[N-])C(=O)O [AZT-5′hémiaspartyl (isomère majeur), 5′-O-(N-acétyl-L-hemiaspartyl)-3′-azido-3′ déoxythymidine]
Cellules MT4
  toxicité (compared with AZT, in words): moins toxiques que l'AZT
Cellules MT4; [10]
  CD₅₀: 74.83 µM
Cellules MT4; [8]
  CD₅₀: 65.06 µM
[4]
  activité (compared with AZT, in words): activités comparables
[4]; comparison with the hémisuccinyl derivative
  indice de sélectivité (in words): comparable à celui du dérivé hémisuccinyl
[4]; [10]
  ED₅₀: 4.000 µM
  SI: 19
[4]; [8]
  ED₅₀: 0.0161 µM
  SI: 4046

## Cc1cn([C@H]2C[C@H](N=[N+]=[N-])[C@@H](COC(=O)[C@@H](N)CC(C)C)O2)c(=O)[nH]c1=O [AZT-5′leucyl, 5′O-(L-leucyl)-3′-azido-3′déoxythymidine]
Cellules MT4; [6]
  CD₅₀: 25.4 µM
[4]; tableau 2, MT4 cells infected with 100 CCID₅₀ HIV-1, 5 days at 37°C, dose that protects 50 % of cells
  ED₅₀: .005 µM
[4]; tableau 2, indice de sélectivité = CD₅₀ sur ED₅₀, MT4 cells
  SI: 5080
[4]; tableau 2, ratio within the same experiment, MT4 cells
  SI dérivé/SI AZT: 2.1

## Cc1cn([C@H]2C[C@H](N=[N+]=[N-])[C@@H](COC(=O)[C@@H](NC(=O)OC(C)(C)C)C(C)C)O2)c(=O)[nH]c1=O [AZT 5′tBoc valyl, 5′-O-(Boc-L-valyl)-3′-azido-3′-deoxythymidine]
Cellules MT4
  toxicité (compared with AZT, in words): moins toxiques que l'AZT
Cellules MT4; [10]
  CD₅₀: 358 µM
Cellules MT4; [8]
  CD₅₀: 420 µM
[4]
  activité (compared with AZT, in words): activités comparables
[4]; [10]
  ED₅₀: 11.002 µM
  SI: 33
[4]; [8]
  ED₅₀: 0.0731 µM
  SI: 5740
